The text below walks through data of patent US20160297851A1, “BROAD SPECTRUM […]” (priority 2012, published 2016).

Structures are written as SMILES. ≈ marks a conversion by molar mass, not a printed value. Like-named read-outs stand apart in the source and are kept apart here.

Experiment [1] deals with wild type S. aureus 8325. In words: microbe, parasite or virus in culture. In kind it is cell-based, Staphylococcus aureus.
The test system of experiment [2] is spsB(S29P) S. epidermidis RP62A. In words: microbe, parasite or virus in culture. It is filed as cell-based, Staphylococcus epidermidis.
For experiment [3], the system named is Lactobacillus gasseri ATCC 19992. As to the kind of experiment: microbe, parasite or virus in culture. In kind it is cell-based. To be noted: ATCC19992.
The subject of experiment [4] is Prevotella copris. As to the kind of experiment: microbe, parasite or virus in culture. In kind it is cell-based.
In experiment [5] the test system is wild type E. coli MG1655. In words: microbe, parasite or virus in culture. It is filed as cell-based, Escherichia coli.
The test system of experiment [6] is Streptococcus agalactiae COH-1. As to the kind of experiment: microbe, parasite or virus in culture. It is filed as cell-based. To be noted: Streptococcus agalactiae, COH1.
Experiment [7] relates to S. epidermidis PAS9002 (SPase S31P). In kind it is cell-based, Staphylococcus epidermidis. The note with it: Ser to Pro mutation at position 31 of SpsIB.

Take `CCCCCCCCCCCCCCCC(=O)N(C)[C@H](CO)C(=O)N[C@H](C)C(=O)NCC(=O)N(C)[C@@H]1C(=O)N[C@@H](C)C(=O)N[C@H](C(=O)O)Cc2ccc(O)c(c2)-c2cc1ccc2O` [Arylomycin C16, arylomycin C16]: in experiment [1], the activity in words entry is “no activity”. The MIC is more than 64 µg/mL in experiment [1] (Staphylococcus aureus, Resistant strain (wild type), read-out: MIC); 8 µg/mL (≈ 9.08 µM) in experiment [2] (Staphylococcus epidermidis, read-out: MIC); more than 128 µg/mL in experiment [3]; more than 16 µg/mL in experiment [4]; more than 64 µg/mL in experiment [5] (Escherichia coli, MG1655, Resistant strain (wild type), read-out: MIC); more than 128 µg/mL in experiment [5] (Resistant strain (wild type)). In experiment [6], this compound displayed an MIC of more than 128 µg/mL. In addition, the “fold elevated MIC compared to the wild type strain” value in experiment [2] (Ser to Pro mutation at position 29 of SpsIB) is 32 fold; in experiment [7] it was “greater than 256 fold”.
